Laboratory results taken from patent US20260027122A1, “USE OF IMIDAZOLINONE DERIVATIVE IN COMBINATION WITH RADIOTHERAPY IN TREATMENT OF TUMORS” (CHENGDU BAIYU PHARMACEUTICAL CO., LTD., priority 2022, published 2026).
Marks after values point to notes of the source that are not given here.

What was measured:
CT26 transplanted tumor = experiment: Inhibition experiment using BALB/c mouse model bearing CT26 transplanted tumor: tumor volume; format: in vivo, BALB/c mice; settings: for Tumor volume (Mean ± SEM): Compound A 20 mpk once a day + IR 2 Gy for 5 consecutive days
Text: (§1) Female BALB/c mice were selected to constitute a CT26 subcutaneous transplanted tumor model by subcutaneous injection of tumor cells. When the mean tumor volume reached 150-200 mm^3, mice were divided into 3 experimental groups: Vehicle, IR, and (Compound A (20 mpk)+IR), respectively, with 8 animals per group and 24 animals in total for grouping experiments. Each irradiated group was given an irradiation dose of 2 Gy for 5 consecutive days, the administration group was given the corresponding drug once a day for 39 consecutive days, and the Vehicle group was given a vehicle.
2.1 Tumor volume: during a drug treatment cycle, the long diameter (a) and short diameter (b) of tumor tissue were measured using an electronic vernier caliper to calculate the volume of the tumor (tumor volume=0.5×a×b^2).

[1] = BALB/c mouse model bearing CT26 transplanted tumor: body weight of mice; format: in vivo; settings: for Body weight: Compound A 20 mpk once a day + IR 2 Gy for 5 consecutive days, in g (unit assumed)
Text: as §1
2.2 Body weight of mice: mice were weighed at least twice a week during a drug treatment cycle.

[2] = compound A in combination with IR

For `CCn1c(=O)n(C2CCOCC2)c2nc(Nc3cc(F)c(C(N)=O)cc3C)ncc21` [Compound A], the “Tumor volume (Mean ± SEM)” value (CT26 transplanted tumor; D0 (day of grouping)) was 168 ± 22 mm^3, the “Tumor volume (Mean ± SEM)” value (CT26 transplanted tumor; D4) was 260 ± 41 mm^3 and the “Tumor volume (Mean ± SEM)” value (CT26 transplanted tumor; D7) was 284 ± 47* mm^3. For the same compound, the “Tumor volume (Mean ± SEM)” value (CT26 transplanted tumor; D11) was 253 ± 56*** mm^3, the “Tumor volume (Mean ± SEM)” value (CT26 transplanted tumor; D14) was 155 ± 28*** mm^3 and the “Tumor volume (Mean ± SEM)” value (CT26 transplanted tumor; D18) was 101 ± 33***# mm^3. For the same compound, the “Tumor volume (Mean ± SEM)” value (CT26 transplanted tumor; D21) was 93 ± 34# mm^3, the “Tumor volume (Mean ± SEM)” value (CT26 transplanted tumor; D25) was 169 ± 71# mm^3 and the “Tumor volume (Mean ± SEM)” value (CT26 transplanted tumor; D28) was 288 ± 105# mm^3. For the same compound, the “Tumor volume (Mean ± SEM)” value (CT26 transplanted tumor; D32) was 462 ± 148# mm^3, the “Tumor volume (Mean ± SEM)” value (CT26 transplanted tumor; D35) was 605 ± 189# mm^3 and the “Tumor volume (Mean ± SEM)” value (CT26 transplanted tumor; D39) was 828 ± 247# mm^3. The “Effect on the anti-tumor efficacy of radiotherapy” value (CT26 transplanted tumor; [2]) was “significantly enhance the anti-tumor efficacy of radiotherapy”, the “Tumor volume compared to the Vehicle and IR groups” value (CT26 transplanted tumor; [2]) was “significantly reduced” and the Body weight ([1]; D0) was 16.8 ± 0.3. The Body weight ([1]; D4) was 17.1 ± 0.3, the Body weight ([1]; D7) was 16.0 ± 0.2 and the Body weight ([1]; D11) was 17.6 ± 0.2. It also gave a Body weight ([1]; D14) of 17.9 ± 0.2, a Body weight ([1]; D18) of 18.6 ± 0.2 and a Body weight ([1]; D21) of 19.1 ± 0.2. It also gave a Body weight ([1]; D25) of 19.4 ± 0.3, a Body weight ([1]; D28) of 19.7 ± 0.2 and a Body weight ([1]; D32) of 19.9 ± 0.4. The Body weight ([1]; D35) was 20.1 ± 0.3, the Body weight ([1]; D39) was 19.6 ± 0.3 and the “Tolerance of the animals” value ([1]; compound A in combination with radiotherapy) was “good tolerance”. The “Effect on body weight gain of animals” value ([1]; compound A in combination with radiotherapy, to D39) was “no effect on body weight gain”.
